In test [1] the target is T1, hAR (human androgen receptor) (Homo sapiens, UniProt P10275).
T1 construct: made in house; host or cells: baculovirus/Sf9 insect cells
T1 sequence (P10275 1-920): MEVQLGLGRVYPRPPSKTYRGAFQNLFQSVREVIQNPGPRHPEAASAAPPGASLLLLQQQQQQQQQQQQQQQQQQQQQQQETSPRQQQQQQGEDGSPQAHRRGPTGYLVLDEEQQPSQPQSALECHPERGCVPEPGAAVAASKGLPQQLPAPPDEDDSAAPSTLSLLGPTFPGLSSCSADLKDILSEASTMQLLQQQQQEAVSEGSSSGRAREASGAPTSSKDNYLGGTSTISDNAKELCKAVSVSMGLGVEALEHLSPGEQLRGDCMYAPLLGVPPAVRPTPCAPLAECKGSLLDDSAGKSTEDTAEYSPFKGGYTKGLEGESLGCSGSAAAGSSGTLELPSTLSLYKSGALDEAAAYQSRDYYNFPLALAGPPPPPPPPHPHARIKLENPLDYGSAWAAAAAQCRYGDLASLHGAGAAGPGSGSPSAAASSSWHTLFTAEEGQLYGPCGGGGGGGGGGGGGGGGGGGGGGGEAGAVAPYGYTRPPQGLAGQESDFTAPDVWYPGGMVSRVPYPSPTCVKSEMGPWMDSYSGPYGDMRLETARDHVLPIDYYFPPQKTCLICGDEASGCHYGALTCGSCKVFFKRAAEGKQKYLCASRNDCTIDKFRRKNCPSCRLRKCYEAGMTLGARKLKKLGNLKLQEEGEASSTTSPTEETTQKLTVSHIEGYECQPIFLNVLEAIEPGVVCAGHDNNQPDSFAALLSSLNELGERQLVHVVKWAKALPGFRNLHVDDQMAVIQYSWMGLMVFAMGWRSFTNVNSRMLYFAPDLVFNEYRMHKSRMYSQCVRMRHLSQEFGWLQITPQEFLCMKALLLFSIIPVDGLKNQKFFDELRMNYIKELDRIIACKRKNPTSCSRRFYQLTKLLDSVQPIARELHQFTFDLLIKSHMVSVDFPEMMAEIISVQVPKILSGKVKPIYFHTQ
Put plainly: Competitive binding analysis on baculovirus/Sf9 generated hAR extracts with 3H-DHT tracer. Here is the method: The description below describes how the assay was carried out.
Competitive binding analysis was performed on baculovirus/Sf9 generated hAR extracts in the presence or absence of different concentrations of test agent and a fixed concentration of ^3H-dihydrotestosterone (^3H-DHT) as tracer. This binding assay method is a modification of a protocol previously described (Liao S., et. al. J. Steroid Biochem. 20:11-17 1984). Briefly, progressively decreasing concentrations of compounds are incubated in the presence of hAR extract (Chang et al. P.N.A.S. Vol. 89, pp. 5546-5950,1992), hydroxylapatite, and 1 nM ^3 H-DHT for one hour at 4° C. Subsequently, the binding reactions are washed three times to completely remove excess unbound ^3 H-DHT. hAR bound ^3H-DHT levels are determined in the presence of compounds (=i.e competitive binding) and compared to levels bound when no competitor is present (=i.e. maximum binding). Compound binding affinity to the hAR is expressed as the concentration of compound at which one half of the maximum binding is inhibited.

For a further test, the target named is T2, androgen receptor (Homo sapiens, UniProt P10275).
T2 sequence (P10275 1-920 Q868H): T1 sequence (P10275 1-920) with Q868H
Put plainly: AR antagonist cell assay, MDA-MB453-MMTV clone 54-19 luciferase reporter. The test is classed as cell-based. Here is the method:
The compounds ability to antagonize the effects of androgen on the androgen receptor were determined in a whole cell assay as described immediately below.
This cell line is a stable transfected cell line with MDA-MB453 cell background (a human breast tumor cell line expressing androgen receptor). A MMTV minimal promoter containing ARE was first cloned in front of a firefly luciferase reporter gene. Then the cascade was cloned into transfection vector pUV120puro. Electroporation method was used for transfecting MDA-MB-453 cell. Puromycin resistant stable cell line was selected.
• 1. Cells are maintained in culture medium, splitting cells when they reach 80-90% confluence • 2. To test compounds, 10,000 cells/well are plated to opaque 96 cell culture plate in 100 ul/well plating medium, culture for overnight at 37° C. in cell culture incubator • 3. Carefully remove plating medium, then add 80 ul/well of pre-warmed assay medium, add 10 ul/well testing compound (final concentration at) 1000 nM, 200 nM, 40 nM, 8 nM, 1.6 nM, and 0.32 nM), incubate at 37° C. for 30 minutes • 4. Add 10 ul/well freshly prepared DHT (final concentration at 100 pM) to each well, incubate at 37° C. for 17 hr (overnight) • 5.
The results are reported as the mean of multiple tests as described below (the numbers of tests are indicated in the footnote). N.D. denotes that the compound was not tested.
In general terms: Reporter assays use an easily measured gene product as a stand-in for the process of interest.

Where [2] appears, read: read-out: AR Cell IC50; MDA-MB453-MMTV clone 54-19, 100 pM DHT, 17 hr; mean of multiple tests.
The mark [3] stands for this setting: hAR extract, 1 nM 3H-DHT, one hour at 4° C., mean of multiple tests, read-out: AR Binding IC50.
Where [4] appears, read: MDA-MB453-MMTV clone 54-19, 100 pM DHT, 17 hr; mean of multiple tests; read-out: AR Cell IC50.

Consider 19 molecules from patent US7576128B2 (priority 2004, dated 2009).

Changes are numbered by the printed parent chain. Where two headings read alike, the source gives them in different places.

As to `CC(O)CCCOc1ccc(C#N)c(C(F)(F)F)c1` (stereo not drawn) [Example 19], the IC50 in test [1] (read-out: AR Binding IC50) was 505 nM; on androgen receptor (setting [2]), more than 1000 nM.
With `C=CCC(O)CCOc1ccc(C#N)c(C(F)(F)F)c1` (stereo not drawn) [Example 9, 4-(3-Hydroxy-hex-5-enyl-oxy)-2tri-fluoromethyl-benzonitrile], the 50% inhibitory concentration (IC50) in test [1] (setting [3]) was 268 nM.
On to `CC(CCO)CCOc1ccc(C#N)c(C(F)(F)F)c1` (stereo not drawn) [Example 26, 4-(5-Hydroxy-3-meth-yl-pentyloxy)-2-tri-fluoromethyl-benzonitrile], for which, in test [1] (read-out: AR Binding IC50), the 50% inhibitory concentration (IC50) came out at 777 nM.
Regarding `CCCCCCC(O)COc1ccc(C#N)c(C(F)(F)F)c1` (stereo not drawn) [Example 5, 4-(2-Hydroxy-octyloxy)-2-tri-fluoromethyl-benzonitrile], the figures for the 50% inhibitory concentration (IC50) (in test [1] (read-out: AR Binding IC50); at androgen receptor (setting [4])) were 32 nM and 509 nM, respectively.
As to `CC(O)CCCCOc1ccc(C#N)c(C(F)(F)F)c1` (stereo not drawn) [Example 25, 4-(5-Hydroxy-hexyloxy)-2-tri-fluoromethyl-benzonitrile], the 50% inhibitory concentration (IC50) came out at 504 nM in test [1] (setting [3]) and 838 nM at androgen receptor (setting [4]).
Regarding `N#Cc1ccc(OCCCCCO)cc1C(F)(F)F` [Example 24, 4-(5-Hydroxy-pentyloxy)-2-tri-fluoromethyl-benzonitrile], the values for the IC50 (in test [1] (setting [3]); on androgen receptor (setting [4])) were 632 nM and more than 1000 nM, respectively.
As for `CC(C)(O)CCOc1ccc(C#N)c(C(F)(F)F)c1` [Example 12, 4-(3-Hydroxy-3-meth-yl-butoxy)-2-tri-fluoromethyl-benzonitrile], the IC50 in test [1] (read-out: AR Binding IC50) came to 27 nM; at androgen receptor (setting [4]), 269 nM.
Regarding `CCCC(O)CCCOc1ccc(C#N)c(C(F)(F)F)c1` (stereo not drawn) [Example 20, 4-(4-Hydroxy-heptyloxy)-2-tri-fluoromethyl-benzontrile], the IC50 turned out to be 243 nM in test [1] (setting [3]) and 498 nM at androgen receptor (setting [4]).
Take `CC(C)C(O)C(C)(C)COc1ccc(C#N)c(C(F)(F)F)c1` (stereo not drawn) [Example 13, 4-(3-Hydroxy-2,2,4-tri-methyl-pentyloxy)-2-tri-fluoromethyl-benzonitrile]: the IC50 in test [1] (setting [3]) worked out at 442 nM.
As to `N#Cc1ccc(OCCCCO)cc1C(F)(F)F` [Example 18, 4-(4-Hydroxy-butoxy)-2-tri-fluoromethyl-benzonitrile], the IC50 worked out at 74 nM in test [1] (read-out: AR Binding IC50) and 398 nM on androgen receptor (setting [4]).
Take `CCCC(CCCO)Oc1ccc(C#N)c(C(F)(F)F)c1` (stereo not drawn) [Example 21, 4-(4-Hydroxy-1-pro-pyl-butoxy)-2-tri-fluoromethyl-benzonitrile]: the 50% inhibitory concentration (IC50) in test [1] (read-out: AR Binding IC50) worked out at 808 nM.
In the case of `C[C@H](C[C@@H](C)O)Oc1ccc(C#N)c(C(F)(F)F)c1` [Example 17, (1R,3R)-4-(3-Hy-droxy-1-methyl-butoxy)-2-tri-fluoromethyl-benzonitrile], the IC50 came to 107 nM in test [1] and 807 nM at androgen receptor (setting [4]).
For the molecule `CC(O)C(C)COc1ccc(C#N)c(C(F)(F)F)c1` (stereo not drawn) [Example 10, 4-(3-Hydroxy-2-meth-yl-butoxy)-2-tri-fluoromethyl-benzonitrile], the results for the half-inhibitory concentration (IC50) (in test [1] (read-out: AR Binding IC50); at androgen receptor (setting [4])) were 70 nM and 274 nM, respectively.
Turning to `CC(O)CCC(C)Oc1ccc(C#N)c(Cl)c1` (stereo not drawn) [Example 28, 2-Chloro-4-(4-hydroxy-1-methyl-pentyloxy)-benzonitrile], the IC50 in test [1] (read-out: AR Binding IC50) came to 49 nM; at androgen receptor (setting [4]) it was 263 nM.
As to `CC(O)CCC(C)Oc1ccc(C#N)c(C(F)(F)F)c1` (stereo not drawn) [Example 22, 4-(4-Hydroxy-1-meth-yl-pentyloxy)-2-tri-fluoromethyl-benzonitrile], the values for the 50% inhibitory concentration (IC50) (in test [1] (setting [3]); on androgen receptor (setting [2])) were 185 nM and more than 1000 nM, respectively.
For `N#Cc1ccc(OCCCCO)cc1Cl` [Example 30, 2-Chloro-4-(4-hydroxy-butoxy)-benzonitrile], in test [1] (read-out: AR Binding IC50), the IC50 was found to be 99 nM.
Take `CC(C)(CO)COc1ccc(C#N)c(C(F)(F)F)c1` [Example 11, 4-(3-Hydroxy-2,2-di-methyl-propoxy)-2-tri-fluoromethyl-benzonitrile]: the IC50 in test [1] (setting [3]) was 706 nM.
Consider `N#Cc1ccc(OCCCO)cc1Cl` [Example 29, 2-Chloro-4-(3-hydroxy-propoxy)-benzonitrile], for which the IC50 in test [1] (read-out: AR Binding IC50) came out at 394 nM.
As for `C=CC(CO)Oc1ccc(C#N)c(Cl)c1` (stereo not drawn) [Example 31, 2-Chloro-4-(1-hydroxymethyl-allyloxy)-benzonitrile], the IC50 in test [1] (setting [3]) worked out at 156 nM.

As usually defined, the IC50 is the concentration that gives 50% inhibition.
